EP0410244A1, “Leukotriene antagonists” (BAYER AG, priority 1989, dated 1991)

Tested on: LTC₄ induced contraction of guinea-pig ileum
Assay: Inhibition of leukotriene (LTC₄) induced contraction of guinea-pig ileum in vitro
Format: cell-based, guinea-pig (Male Dunkin-Hartley strain)
Conditions: Cavia porcellus
Method: The leukotriene antagonist activity of the compounds of this invention is measured by the ability of the compounds to inhibit the leukotriene induced contraction of guinea-pig ileum in vitro as described below.
Five (5) centimeter longitudinal strips of guinea-pig ileum (Male Dunkin-Hartley strain) were bathed in modified Tyrodes buffer, containing 3µM indomethacin, in jacketed 10 mL tissue baths at 37°C and continuously aerated with 95% O₂/5% CO₂. The tissues were connected via cotton sutures to isotonic transducers. The tissues were equilibrated for 60 minutes and 100µM histamine was added to determine the maximal response of the tissues. This was removed by washout to give a steady baseline. Then the test compound, or vehicle control, was added cumulatively in half-log units until a bath concentration of 10µM was reached.
After a further equilibration period of 15 minutes, a concentration response curve to the reference agonist (LTD₄ or LTC₄) was generated. All determinations were carried out in triplicate and observations normalised against the maximal leukotriene response. Least-squares linear regression analysis was then used to calculate the concentration of leukotriene needed to elicit 50% of the maximum response and defined as the EC₅₀. […]
All compounds were measured against LTD₄ as the reference agonists except the compound of Example 65 which were measured against LTC₄.

Work on `CCCCC/C=C\C\C=C/C=C/C=C/[C@@H](Sc1ccc(C(=O)O)cc1)[C@@](C)(O)CCCC(=O)O` [Example 65, 5S-Hydroxy-5-methyl-6R-(4-carboxyphenylthio)eicosa-7E,9E,11Z,14Z-tetraenoic Acid] yielded a Kb of 398 nM.
